Target: T1, USP7 (Homo sapiens, UniProt Q93009)
T1 construct: full length human USP7 protein; made in house
Test: USP7, Ub-PLA2 assay
Format: biochemical
Conditions: Ub-PLA2 / NBD C6-HPC fluorescence, 30 minute preincubation; read-out: EC50 for inhibition of USP7
Description: The purpose of this assay is to measure the inhibition of USP7 by various compounds of the invention synthesized according to the above-described methods. […] The vehicle control was 100% (v/v) DMSO. 1.6 μL aliquots of the diluted test compound and controls were dispensed into individual wells in a black walled 96 well plate. […] The data were normalized within a plate relative to the control wells using the equation % inhibition=(100−(((RFUcompound−RFUmean NEM) / (RFUmean DMSO−RFUmean NEM))×100)).

T1 sequence (Q93009 whole entry): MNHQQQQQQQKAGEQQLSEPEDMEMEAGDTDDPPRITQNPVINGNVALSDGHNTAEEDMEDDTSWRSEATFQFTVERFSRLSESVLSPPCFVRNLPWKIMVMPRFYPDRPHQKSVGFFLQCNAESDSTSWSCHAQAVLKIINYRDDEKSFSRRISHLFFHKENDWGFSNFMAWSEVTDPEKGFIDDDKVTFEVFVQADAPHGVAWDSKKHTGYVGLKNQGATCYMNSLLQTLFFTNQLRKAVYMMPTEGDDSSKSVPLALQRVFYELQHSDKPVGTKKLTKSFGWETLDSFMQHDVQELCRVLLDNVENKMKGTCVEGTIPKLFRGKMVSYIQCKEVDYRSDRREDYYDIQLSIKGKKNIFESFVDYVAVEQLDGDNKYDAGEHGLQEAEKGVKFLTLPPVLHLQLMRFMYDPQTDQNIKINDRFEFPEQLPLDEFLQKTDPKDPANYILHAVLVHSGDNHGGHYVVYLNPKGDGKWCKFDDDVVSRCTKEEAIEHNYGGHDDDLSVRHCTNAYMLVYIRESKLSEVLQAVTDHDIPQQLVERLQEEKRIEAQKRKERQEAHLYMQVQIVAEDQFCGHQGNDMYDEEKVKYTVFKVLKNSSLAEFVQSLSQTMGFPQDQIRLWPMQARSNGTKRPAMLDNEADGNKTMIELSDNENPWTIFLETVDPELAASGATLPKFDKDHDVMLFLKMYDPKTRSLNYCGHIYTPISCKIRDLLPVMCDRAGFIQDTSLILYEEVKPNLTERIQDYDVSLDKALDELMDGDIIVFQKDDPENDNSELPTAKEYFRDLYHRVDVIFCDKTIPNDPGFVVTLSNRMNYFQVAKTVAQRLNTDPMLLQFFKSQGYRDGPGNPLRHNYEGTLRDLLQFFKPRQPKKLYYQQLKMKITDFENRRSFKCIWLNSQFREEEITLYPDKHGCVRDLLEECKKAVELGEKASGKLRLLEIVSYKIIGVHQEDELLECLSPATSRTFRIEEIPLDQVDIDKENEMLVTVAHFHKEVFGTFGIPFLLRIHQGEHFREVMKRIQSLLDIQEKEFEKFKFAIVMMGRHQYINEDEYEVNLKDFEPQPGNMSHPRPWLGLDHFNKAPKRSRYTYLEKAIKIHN

Structure (SMILES)	EC50 [nM]
O=C(NCc1ccc2c(c1)CCO2)c1cc([N+](=O)[O-])c(Sc2c(Cl)cncc2Cl)s1 [Example 70, 5-((3,5-dichloropyridin-4-yl)thio)-N-((2,3-dihydrobenzofuran-5-yl)methyl)-4-nitrothiophene-2-carboxamide]	1000 to 10000
O=C(NC1C2CC3CC(C2)CC1C3)c1cc([N+](=O)[O-])c(Sc2c(Cl)cncc2Cl)s1 (stereo not shown) [Example 75, N-((1r,3r,5r,7r)-adamantan-2-yl)-5-((3,5-dichloropyridin-4-yl)thio)-4-nitrothiophene-2-carboxamide]	1000 to 10000
CC(=O)c1cc([N+](=O)[O-])c(Sc2ccc(Br)cc2)s1 [Example 12, 1-[5-(4-Bromophenylsulfanyl)-4-nitro-2-thienyl]ethanone]	1000 to 10000
Cn1nccc1NC(=O)c1cc([N+](=O)[O-])c(Sc2c(Cl)cncc2Cl)s1 [Example 167, 5-((3,5-dichloropyridin-4-yl)thio)-N-(1-methyl-1H-pyrazol-5-yl)-4-nitrothiophene-2-carboxamide]	≤ 1000
NC(=O)C1CCN(CCCNC(=O)c2cc([N+](=O)[O-])c(Sc3c(Cl)cncc3Cl)s2)CC1 [Example 226, 1-(3-(5-((3,5-dichloropyridin-4-yl)thio)-4-nitrothiophene-2-carboxamido)propyl)piperidine-4-carboxamide]	≤ 1000
CSc1ccc(CNC(=O)c2cc([N+](=O)[O-])c(Sc3c(Cl)cncc3Cl)s2)cc1 [Example 264, 5-((3,5-dichloropyridin-4-yl)thio)-N-(4-(methylthio)benzyl)-4-nitrothiophene-2-carboxamide]	≤ 1000
CN(C)CCCOc1ccc(NC(=O)c2cc([N+](=O)[O-])c(Sc3c(F)cncc3F)s2)cc1 [Example 257, 5-((3,5-difluoropyridin-4-yl)thio)-N-(4-(3-(dimethylamino)propoxy)phenyl)-4-nitrothiophene-2-carboxamide]	1000 to 10000
CS(=O)(=O)c1ccc(CNC(=O)c2cc([N+](=O)[O-])c(Sc3c(Cl)cncc3Cl)s2)cc1 [Example 102, 5-((3,5-dichloropyridin-4-yl)thio)-N-(4-(methylsulfonyl)benzyl)-4-nitrothiophene-2-carboxamide]	≤ 1000
O=C(NCc1ccc(-c2ccccc2)cc1)c1cc([N+](=O)[O-])c(Sc2c(Cl)cncc2Cl)s1 [Example 63, N-([1,1′-biphenyl]-4-ylmethyl)-5-((3,5-dichloropyridin-4-yl)thio)-4-nitrothiophene-2-carboxamide]	1000 to 10000
CC(=O)c1cc([N+](=O)[O-])c(Sc2ccc(-c3ccccc3)cc2)s1 [Example 16, 1-[4-nitro-5-(4-phenylphenyl)sulfanyl-2-thienyl]ethanone]	> 10000
O=C(NCC(=O)N1CCCCC1)c1cc([N+](=O)[O-])c(Sc2c(Cl)cncc2Cl)s1 [Example 221, 5-((3,5-dichloropyridin-4-yl)thio)-4-nitro-N-(2-oxo-2-(piperidin-1-yl)ethyl)thiophene-2-carboxamide]	1000 to 10000
O=C(NC1CN2CCC1CC2)c1cc([N+](=O)[O-])c(Sc2c(Cl)cncc2Cl)s1 (stereo not shown) [Example 202, 5-((3,5-dichloropyridin-4-yl)thio)-4-nitro-N-(quinuclidin-3-yl)thiophene-2-carboxamide]	≤ 1000
Cc1ccsc1CNC(=O)c1cc([N+](=O)[O-])c(Sc2c(Cl)cncc2Cl)s1 [Example 56, 5-((3,5-dichloropyridin-4-yl)thio)-N-((3-methylthiophen-2-yl)methyl)-4-nitrothiophene-2-carboxamide]	1000 to 10000
O=C(NCC(=O)N1CCC(F)CC1)c1cc([N+](=O)[O-])c(Sc2c(Cl)cncc2Cl)s1 [Example 216, 5-((3,5-dichloropyridin-4-yl)thio)-N-(2-(4-fluoropiperidin-1-yl)-2-oxoethyl)-4-nitrothiophene-2-carboxamide]	1000 to 10000
CC(O)c1cc([N+](=O)[O-])c(Sc2ccc(Cl)cc2Cl)s1 (stereo not shown) [Example 26, 1-[5-(2,4-dichlorophenyl)sulfanyl-4-nitro-2-thienyl]ethanol]	> 10000
O=C(Nc1ccccc1)c1cc([N+](=O)[O-])c(Sc2c(Cl)cncc2Cl)s1 [Example 116, 5-((3,5-dichloropyridin-4-yl)thio)-4-nitro-N-phenylthiophene-2-carboxamide]	≤ 1000
O=C(NCc1ccc2c(c1)OCCO2)c1cc([N+](=O)[O-])c(Sc2c(Cl)cncc2Cl)s1 [Example 147, 5-((3,5-dichloropyridin-4-yl)thio)-N-((2,3-dihydrobenzo[b][1,4]dioxin-6-yl)methyl)-4-nitrothiophene-2-carboxamide]	≤ 1000
CC(=O)c1cc([N+](=O)[O-])c(Sc2ccc3ccccc3c2)s1 [Example 11, 1-[5-(2-Naphthylsulfanyl)-4-nitro-2-thienyl]ethanone]	> 10000
O=C(NCc1ccc(O)cc1)c1cc([N+](=O)[O-])c(Sc2c(Cl)cncc2Cl)s1 [Example 165, 5-((3,5-dichloropyridin-4-yl)thio)-N-(4-hydroxybenzyl)-4-nitrothiophene-2-carboxamide]	≤ 1000
O=C(NC1CCCCC1)c1cc([N+](=O)[O-])c(Sc2c(Cl)cncc2Cl)s1 [Example 154, N-cyclohexyl-5-((3,5-dichloropyridin-4-yl)thio)-4-nitrothiophene-2-carboxamide]	≤ 1000
CC(=O)c1cc([N+](=O)[O-])c(Sc2ccncc2Cl)s1 [Example 39, 1-[5-[(3-chloro-4-pyridyl)sulfanyl]-4-nitro-2-thienyl]ethanone]	> 10000
O=C(Nc1ccc(F)cc1)c1cc([N+](=O)[O-])c(Sc2c(Cl)cncc2Cl)s1 [Example 136, 5-((3,5-dichloropyridin-4-yl)thio)-N-(4-fluorophenyl)-4-nitrothiophene-2-carboxamide]	≤ 1000
O=C(NC12CC3CC(CC(C3)C1)C2)c1cc([N+](=O)[O-])c(Sc2c(Cl)cncc2Cl)s1 [Example 76, N-((3s,5s,7s)-adamantan-1-yl)-5-((3,5-dichloropyridin-4-yl)thio)-4-nitrothiophene-2-carboxamide]	> 10000
COC(=O)c1cc([N+](=O)[O-])c(Sc2nc3cc(Cl)c(F)cc3[nH]2)s1 [Example 265, Methyl 5-((5-chloro-6-fluoro-1H-benzo[d]imidazol-2-yl)thio)-4-nitrothiophene-2-carboxylate]	1000 to 10000
CN1CCCC(NC(=O)c2cc([N+](=O)[O-])c(Sc3c(Cl)cncc3Cl)s2)C1 (stereo not shown) [Example 189, 5-((3,5-dichloropyridin-4-yl)thio)-N-(1-methylpiperidin-3-yl)-4-nitrothiophene-2-carboxamide]	≤ 1000
CN1CCC(NC(=O)c2cc([N+](=O)[O-])c(Sc3c(F)cncc3F)s2)CC1 [Example 256, 5-((3,5-difluoropyridin-4-yl)thio)-N-(1-methylpiperidin-4-yl)-4-nitrothiophene-2-carboxamide]	1000 to 10000
Cc1nc(C)c(Cl)c(Sc2sc(C(=O)NC3CCN(C)CC3)cc2[N+](=O)[O-])c1Cl [Example 243, 5-((3,5-dichloro-2,6-dimethylpyridin-4-yl)thio)-N-(1-methylpiperidin-4-yl)-4-nitrothiophene-2-carboxamide]	1000 to 10000
CN(C)CCCOc1cccc(CNC(=O)c2cc([N+](=O)[O-])c(Sc3c(Cl)cncc3Cl)s2)c1 [Example 126, 5-[(3,5-dichloro-4-pyridyl)sulfanyl]-N-[[3-(3-dimethylaminopropoxy)phenyl]methyl]-4-nitro-thiophene-2-carboxamide]	≤ 1000
